{"source": "paper PMC7718273", "about": "(Scientific Reports, 2020)", "molecules": {"B1": {"name": "hFGF21: full-length recombinant human FGF21 from Cell Science, given i.p. alone or with BR103354 (protein, UniProt Q9NSA1 29-209, looked up)", "Fibroblast growth factor 21": "HPIPDSSPLLQFGGQVRQRYLYTDDAQQTEAHLEIREDGTVGGAADQSPESLLQLKALKPGVIQILGVKTSRFLCQRPDGALYGSLHFDPEACSFRELLLEDGYNVYQSEAHGLPLHLPGNKSPHRDPAPRGPARFLPLPGLPPALPEPPGILAPQPPDVGSSDPLSMVGPSQGRSPSYAS"}}, "key": {"CDAHFD NASH mouse model": {"system": "CDAHFD NASH mouse model", "experiment": "In vivo study using CDAHFD mice (NASH model)", "set-up": "species or system C57BL/6J mice", "conditions": "positive control 3 mg/kg p.o. for 10 weeks", "method": "C57BL/6J mice were fed normal chow diet (n = 5) or choline-deficient, L-amino acid-defined, high-fat diet (CDAHFD) for 4 weeks to induce NASH (n = 8–10/group). […] (a) Relative FAP activity was assessed by FRET-quench and serum FGF21 level at week 14. […] (c) Steatosis scores ranged from 0 to 3 (normal = 0, minimal = 1, moderate = 2, marked = 3) were determined. Hepatic steatosis and fibrosis (Picrosirius red stain) were analyzed in a blinded manner or by digital image analyzer. (d–e) Histological evaluations of liver tissue were performed in each group. Paraffin-embedded liver sections were stained with H&E (d) and Sirius red (e). Representative photographs of each group were presented. Images were obtained at 100x (Scale bar = 50 µm).\nMale C57BL/6J mice (5 weeks of age) were fed with a CDAHFD consisting of 60% kcal fat and 0.1% methionine. […] For the CDAHFD model, compound treatments were started at the beginning of week 4 on the diet and continued until week 14. […] Liver tissue was then collected. All other measurements were done similarly as described above. Staining was performed using H&E and Picrosirius red as described previously. Areas of positive Sirius red were quantified by computer-based morphometric analysis."}, "diet-induced obese mice": {"system": "diet-induced obese mice", "set-up": "method as in PMID 27689014", "conditions": "cited from earlier work"}, "ob/ob mice": {"system": "ob/ob mice", "experiment": "Acute study using ob/ob mice: blood glucose and intact hFGF21", "conditions": "hFGF21 0.1 mg/kg i.p. alone", "procedure": "Blood was collected at the indicated time points. (a) Nonfasting blood glucose levels were measured at the indicated time points. […] (c) Plasma intact hFGF21 levels were measured using ELISA kit at 1, 3, 6, and 9 h. All data are the means ± S.D. *P < 0.05, **P < 0.01 and *** P < 0.001 vs. vehicle group.\nBlood was promptly collected by orbital bleeding that was allowed to clot, and supernatant was collected after centrifugation at 4 °C at 3000 rpm. Serum intact FGF21 concentrations were measured by intact hFGF21 ELISA (Alpco, Keewaydin Dr, Salem, NH, catalog no. 43-FGFHU-E01)[29]."}, "[1]": {"conditions": "animals administered with Talabostat alone"}}, "note": "“Also recorded” adds a separate entry of the source.", "data": [{"molecule": "O=C(O)c1cc(F)c2nc(N3[C@@H]4CC[C@H]3C[C@@H](OCc3c(-c5ccccc5OC(F)(F)F)noc3C3CC3)C4)sc2c1", "note": "[LJN, Tropifexor, reference compound]", "values": [{"measurement": "all parameters of the CDAHFD study", "setting": "CDAHFD NASH mouse model", "value": "All parameters showed improvements"}]}, {"molecule": "CC(C)[C@H](N)C(=O)N1CCC[C@H]1B(O)O", "note": "[Talabostat]", "values": [{"measurement": "adiposity", "setting": "diet-induced obese mice; [1]", "value": "decreased"}, {"measurement": "body weight", "setting": "diet-induced obese mice; [1]", "value": "decreased"}, {"measurement": "food consumption", "setting": "diet-induced obese mice; [1]", "value": "decreased"}, {"measurement": "endogenous intact FGF21 level", "setting": "diet-induced obese mice; diet-induced obese mice", "value": "increased"}, {"measurement": "insulin resistance / insulin sensitivity", "setting": "diet-induced obese mice; diet-induced obese mice", "value": "improved insulin resistance; also recorded: improved insulin sensitivity"}]}, {"molecule": "B1", "values": [{"measurement": "decrease of blood glucose AUC", "setting": "ob/ob mice", "value": "about 20%"}, {"measurement": "nonfasting blood glucose level, maximum average reduction to", "setting": "ob/ob mice; 3 h, starting from 340 mg/dL", "value": 230, "unit": "mg/dL"}]}]}
